# US12138254B2, “Chronic nightly dosing of lasmiditan for migraine prevention” (Eli Lilly and Company, priority 2018, dated 2024)
# Tested on: dural plasma protein extravasation
# Assay: Trigeminal stimulation-induced dural plasma protein extravasation (PPE) in rats
# Format: in vivo, Sprague-Dawley rats
# Source text: Migraine is a painful condition thought to involve neurogenic inflammation of the dural membrane and activation of the trigeminal nervous system. The 5-HT1F receptor is widely expressed in the CNS and peripheral nerves, including the trigeminal ganglia, dorsal root ganglia and trigeminal nucleus caudalis. Plasma protein extravasation (PPE), one component of neurogenic inflammation, can be induced in the dura of rats by electrically stimulating the trigeminal ganglion. Considering the role of the trigeminal nerve in the physiology of migraine, this study is useful to characterize the ability of lasmiditan-hemisuccinate to block plasma protein extravasation in the dura of rats following electrical stimulation of the trigeminal ganglion.
# To investigate the potential of lasmiditan to modify the dysfunction in the target tissue, the duration of effect following a single oral dose of lasmiditan-hemisuccinate was also determined. Electrical stimulation of the trigeminal ganglion of rats and guinea pigs can be used to induce neurogenic inflammation in the meninges (dura). Briefly, unilateral electrical stimulation of either the left or right trigeminal ganglion using electrodes implanted stereotaxically is used to induce ipsilateral neurogenic inflammation and the increased extravasation of plasma proteins.
# Lasmiditan-hemisuccinate is dissolved in sterile water. All doses of lasmiditan are reported as free base equivalent doses, accounting for the weight of the salt. Envigo Sprague-Dawley, Sprague-Dawley male rats (250-350 grams, n=4/group) are fasted overnight prior to dosing. The animals are orally gavaged (2 mL/kg dose volume) with test compound or vehicle one hour prior to stimulation time and returned to their cages with only water available. Approximately 50 minutes post-dosing, the rats are anesthetized with Nembutal (65 mg/kg, ip.) and implanted with stainless steel stimulating electrodes (Rhodes Medical Systems, Inc.) to a depth of 9.2 mm. from the dura. The femoral vein is exposed and fluorescein isothiocyanate-labeled bovine serum albumin (FITC-BSA) (20 mg/kg, iv.), is injected into the femoral vein 2 minutes prior to stimulation. The FITC-BSA functions as a marker for protein extravasation. The left trigeminal ganglion is stimulated for 5 minutes at a current intensity of 1.0 mA (5 Hz, 5 msec pulse duration) with a Model S48 Grass Instrument Stimulator with PSIU6 photoelectric isolation unit (Grass-Telefactor). Five minutes following stimulation, a blood sample is collected by cardiac puncture and the rats are sacrificed by exsanguination with 40 ml of saline. One milliliter of blood is collected and placed in a 1.5 ml EDTA coated tube (Fisher Cat. #540734) on ice. Plasma is separated via centrifugation at 10,000 rpm (941 g) for thirty minutes at 4° C. The top of the skull is removed to collect the brain and dural membranes. The brain and plasma samples are frozen at −80° C. until thawed for compound quantification. The membrane samples are removed from both hemispheres, rinsed with water, and spread flat on microscope slides. The slides are dried for 15 minutes on a slide warmer, then the tissues are cover-slipped with a 70% glycerol/water solution. A fluorescence microscope (Zeiss) equipped with a grating monochromator and a spectrophotometer is used to quantify the amount of FITC-BSA dye in each dural sample. The extravasation induced by electrical stimulation of the trigeminal ganglion is an ipsilateral effect (i.e. occurs only on the side of the dura in which the trigeminal ganglion was stimulated). This allows the other (unstimulated) half of the dura to be used as the control. The ratio of extravasation in the dura from the stimulated side versus the unstimulated side is calculated and reported as the extravasation ratio for each animal. The mean extravasation ratio and standard error of the mean (SEM) are calculated for each treatment group. Controls yield a ratio of approximately 1.8. […]
substance,measurement,setting,value
"2,4,6-trifluoro-N-[6-(1-methyl-piperidine-4-carbonyl)-pyridin-2-yl]-benzamide hemi-succinate salt [Lasmiditan-hemisuccinate]",inhibition of dural plasma protein extravasation vs vehicle,"1 mg/kg po, 1 hour post-dose",statistically different vs vehicle
same,inhibition of dural plasma protein extravasation vs vehicle,"10 mg/kg po, 1 hour post-dose",statistically different vs vehicle
same,inhibition of dural plasma protein extravasation,"one hour following oral administration to rats, 0.1-10 mg/kg",dose-dependently inhibits
same,inhibition of dural plasma protein extravasation vs vehicle,"single 10 mg/kg po, 24 hours post-dose",significantly blocks
same,inhibition of dural plasma protein extravasation vs vehicle,"single 10 mg/kg po, 48 hours post-dose",not effective
